Patent US6413975B1, “Purine derivatives having phosphodiesterase iv inhibition activity” (Euro-Celtique, S.A., priority 1999, dated 2002)
Where a name gives a salt, the structure may show the parent alone.

These compounds were tested on Type IV PDE (assay: PDE IV inhibition: hydrolysis of [3H]-cyclic AMP by isolated Type IV PDE). Conditions: adenines, Table 4; cyclic AMP 0.2 μM; read-out: calc PDE IV IC50.
Assay type: biochemical, bovine
Description: The Type IV PDE is isolated from bovine tracheal smooth muscle using a procedure similar to that previously described by Silver, P. J., Hamel, L. T., Perrone, M. H. Bentley, R. G. Bushover, C. R., Evans, D. B.: Eur. J. Pharmacol. 150:85,1988.(1). Briefly, smooth muscle from bovine trachea is minced and homogenized using a polytron in 10 volumes of an extraction buffer containinhg 10 mM Tris-acetate (pH 7.5), 2 mM magnesium chloride, 1 mM dithiothreitol and 2,000 units/ml of aprotinin. This and all subsequent procedures are performed at 0-4° C. The homogenate is sonicated and then centrifiged at 48,000×g for 30 minutes. The resulting supernatant is applied to a DEAE Trisacryl M column previously equilibrated with sodium acetate and dithiothreitol. After applications of the sample, the column is washed with sodium acetate/dithiothreitol, after which the different forms of PDE are eluted from the column using a linear Tris-HCl/NaCl gradient. Fractions containing Type IV PDE are collected, dialyzed and concentrated to 14% of the original volume. The concentrated fractions are diluted to 50% with ethylene glycol and stored at -20° C.
Enzyme activity is assessed by measuring the hydrolysis of [^3H]-cyclic AMP, as described by Thompson, W. J., Teraski, W. L., Epstein, P. N., Strada, S. J.: Adv. Cyclic Nucleotide Res. 10:69, 1979. The cyclic AMP concentration used in this assay is 0.2 μM, which approximates the Km value. Protein concentration is adjusted to ensure that no more than 15% of the available substrate is hydrolyzed during the incubation period.
All test compounds are dissolved in dimethyl sulfoxide (final concentration of 2.5%). This concentration of dimethyl sulfoxide inhibits enzyme activity by approximately 10%.
With CCCCn1cnc(NCC)c2ncnc1-2 [3-butyl-6-ethylamino-3H-purine hydrochloride] the IC50 was 66.4 µM.
CCCCn1cnc(NCC)c2nc(C3CC3)nc1-2 [3-butyl-8-cyclopropyl-6-ethylamino-3H-purine hydrochloride] showed an IC50 of 5.99 µM.
CCNc1ncn(CC2CCCCC2)c2ncnc1-2 [3-cyclohexylmethyl-6-ethylamino-3H-purine hydrochloride] showed an IC50 of 33 µM.
In the case of CCNc1ncn(CC2CCCCC2)c2nc(C3CC3)nc1-2 [3-cyclohexylmethyl-8-cyclopropyl-6-ethylamino-3H-purine hydrochloride], the IC50 is reported as 3.78 µM.
CCNc1ncn(CC2CC2)c2nc(C(C)C)nc1-2 [3-cyclopropylmethyl-8-isopropyl-6-ethylamino-3H-purine hydrochloride] showed an IC50 of 12.7 µM.

Same assay, conditions: adenines, Table 7; read-out: calc PDE IV IC50
CCNc1ncn(Cc2ccc(OC)c(OC3CCC(O)C3)c2)c2nc(C(C)C)nc1-2 (stereo not shown) [3-(3-((3-hydroxy)cyclopentyloxy)-4-methoxybenzyl)-6-ethylami] [3-(3-((3-hydroxy)cyclopentyloxy)-4-methoxybenzyl)-6-ethylamino-8-isopropyl-3H-purine] showed an IC50 of 1.36 µM.
CCNc1ncn(Cc2ccc(OC)c(OCc3ccccc3)c2)c2nc(C(C)C)nc1-2 [3-(3-benzyloxy-4-methoxy-benzyl)-6-ethylamino-8-isopropyl-3H-purine] showed an IC50 of 1.3 µM.
In the case of CCNc1ncn(Cc2cccc(Cl)c2)c2nc(C(C)C)nc1-2 [3-(3-chlorobenzyl)-6-ethylamino-8-isopropyl-3H-purine], the IC50 is reported as 2.15 µM.
Work on COc1ccc(CNc2ncn(Cc3ccc(OC)c(OC4CCCC4)c3)c3nc(C(C)C)nc2-3)cc1OC1CCCC1 [3-(3-cyclopentyloxy-4-methoxybenzyl)-6-(3-cyclopentyloxy-4-methoxybenzylamino)-8-isopropyl-3H-purine] yielded an IC50 of 1.14 µM.
For COc1ccc(Cn2cnc(NCC(F)(F)F)c3nc(C(C)C)nc2-3)cc1OC1CCCC1 [3-(3-cyclopentyloxy-4-methoxybenzyl)-6-((2,2,2-trifluoroethyl)amino)-8-isopropyl-3H-purine], the IC50 was 12.8 µM.
Work on CCN(C(=O)c1ccccc1)c1ncn(Cc2ccc(OC)c(OC3CCCC3)c2)c2nc(C(C)C)nc1-2 [3-(3-cyclopentyloxy-4-methoxybenzyl)-6-(N-benzoyl-N-ethylamino)-8-isopropyl-3H-purine] yielded an IC50 of 1.43 µM.
Compound COc1ccc(Cn2cnc(N)c3nc(C(C)C)nc2-3)cc1OC1CCCC1 [3-(3-cyclopentyloxy-4-methoxybenzyl)-6-amino-8-isopropyl-3H-purine] has an IC50 of 0.82 µM.
COc1ccc(Cn2cnc(N(C)C)c3nc(C(C)C)nc2-3)cc1OC1CCCC1 [3-(3-cyclopentyloxy-4-methoxybenzyl)-6-dimethylamino-8-isopropyl-3H-purine] showed an IC50 of 19.3 µM.
Work on CCNc1nc(NCC)n(Cc2ccc(Cl)cc2)c2nc(C(C)C)nc1-2 [3-(4-chlorobenzyl)-2,6-di(ethylamino)-8-isopropyl-3H-purine] yielded an IC50 of 11.2 µM.
Work on CC(C)c1nc2c(NC3(O)CCCC3)ncn(Cc3ccc(Cl)cc3)c-2n1 [3-(4-chlorobenzyl)-6-((1-hydroxy)cyclopentylamino)-8-isopropyl-3H-purine] yielded an IC50 of 4.48 µM.
CC(C)c1nc2c(NC3CCCC3)ncn(Cc3ccc(Cl)cc3)c-2n1 [3-(4-chlorobenzyl)-6-cyclopentylamino-8-isopropyl-3H-purine] showed an IC50 of 4.7 µM.
With CC(C)c1nc2c(NC3CC3)ncn(Cc3ccc(Cl)cc3)c-2n1 [3-(4-chlorobenzyl)-6-cyclopropylamino-8-isopropyl-3H-purine] the IC50 was 1.69 µM.
In the case of CCNc1ncn(-c2ccc(Cl)cc2)c2nc(C(C)C)nc1-2 [3-(4-chlorophenyl)-6-ethylamino-8-isopropyl-3H-purine], the IC50 is reported as 6.5 µM.
Compound COc1ccc(Cn2cncc3nc(C(C)(C)O)nc2-3)cc1OC1CCC(O)C1 (stereo not shown) [3-[3-(3-Hydroxy-cyclopentyloxy)-4-methoxy-benzyl]-8-(1-hydroxy-1-methyl-ethyl)-3H-purine] has an IC50 of 2.25 µM.
Compound CCNc1ncn(Cc2ccc(OC)c(OC3CCC(O)C3)c2)c2nc(C(C)C)nc1-2 (stereo not shown) [3-[3-(3-hydroxy)cyclopentyloxy)]-4-methoxy)benzyl)-6-ethylam] [3-[3-(3-hydroxy)cyclopentyloxy)]-4-methoxy)benzyl)-6-ethylamino-8-isopropyl-3H-purine] has an IC50 of 2.28 µM.
Compound CCNc1ncn(Cc2ccc(OC)c(OC3CCCCC3)c2)c2nc(C(C)C)nc1-2 [3-[3-Cyclohexanyl-4-oxy-4-methoxy-benzyl]-6-ethylamino-8-isopropyl-3H-purine] has an IC50 of 8.28 µM.
With C=C(C)c1nc2c(NCC)ncn(Cc3ccc(OC)c(OC4CCCC4)c3)c-2n1 [3-[(3-cyclopentyloxy-4-methoxy)benzyl]-6-ethylamino-8-(1-methyl-ethenyl)-3H-purine] the IC50 was 0.27 µM.
CCNc1ncn(Cc2ccc(OC)c(OC3CCCC3)c2)c2nc(C(C)(C)O)nc1-2 [3-[(3-cyclopentyloxy-4-methoxy)benzyl]-6-ethylamino-8-[(1-hy] [3-[(3-cyclopentyloxy-4-methoxy)benzyl]-6-ethylamino-8-[(1-hydroxy-1-methyl)ethyl]-3H-purine] showed an IC50 of 0.85 µM.
CCNc1ncn(Cc2ccc(OC)c(OC3CCCC3)c2)c2nc(C(C)(C)O)nc1-2 [3-[(3-cyclopentyloxy-4-methoxy)benzyl]-8-[(1-methyl-1-hydrox] [3-[(3-cyclopentyloxy-4-methoxy)benzyl]-8-[(1-methyl-1-hydroxy)ethyl]-6-ethylamino-3H-purine] gave an IC50 of 3.1 µM.

Same assay, conditions: dithioxanthines, Table 5; read-out: IC50 PDE IV
Work on CCCn1c(=S)[nH]c(=S)c2[nH]c(C(C)C)nc21 [3,7-dihydro-8-isopropyl-3-propyl-2,6-dithio-1H-purine-2,6-dione] yielded an IC50 of 3.5 µM.
Work on CC(C)c1nc2c([nH]1)c(=S)[nH]c(=S)n2Cc1ccccc1Cl [3-(2-chlorobenzyl)-3,7-dihydro-8-isopropyl-2,6-dithio-1H-purine-2,6-dione] yielded an IC50 of 7.74 µM.
COc1ccc(Cn2c(=S)[nH]c(=S)c3[nH]cnc32)cc1OC1CCCC1 [3-(3-cyclopentyloxy-4-methoxybenzyl)-3,7-dihydro-2,6-dithio-1H-purine-2,6-dione] showed an IC50 of 16.2 µM.
Work on CC(C)c1nc2c([nH]1)c(=S)[nH]c(=S)n2Cc1ccc(Cl)cc1 [3-(4-chlorobenzyl)-8-isopropyl)-3,7 dihydro-2,6-dithio-3,7-purine-2,6-dione] yielded an IC50 of 2.4 µM.
S=c1[nH]c(=S)n(Cc2ccccc2)c2nc[nH]c12 [3-benzyl-3,7-dihydro-2,6-dithio-1H-purine-2,6-dione] was tested, and the IC50 was 38.5 µM.
With CCCCn1c(=S)[nH]c(=S)c2[nH]c(C(C)C)nc21 [3-butyl-3,7-dihydro-8-(1-methylethyl)-2,6-dithio-1H-purine-2,6-dione] the IC50 was 5.93 µM.
Compound CCCCn1c(=S)[nH]c(=S)c2[nH]c(C3CC3)nc21 [3-butyl-8-cyclopropyl-3,7-dihydro-2,6-dithio-1H-purine-2,6-dione] has an IC50 of 9.43 µM.
S=c1[nH]c(=S)n(CC2CCCCC2)c2nc(C3CC3)[nH]c12 [3-cyclohexylmethyl-8-cyclopropyl-3,7-dihydro-2,6-dithio-1H-purine-2,6-dione] showed an IC50 of 3.03 µM.
CCn1c(=S)[nH]c(=S)c2[nH]c(C(C)C)nc21 [3-ethyl-3,7-dihydro-8-isopropyl-2,6-dithio-1H-purine-2,6-dione] showed an IC50 of 4.1 µM.

Same assay, conditions: read-out: PDE IV I50
In the case of CCNc1ncn(Cc2ccc(OC)c(OC3CCCC3)c2)c2ncnc1-2 [3-(3-Cyclopentyloxy-4-methoxybenzyl)-6-ethylamino-3H-purine Hydrochloride], the IC50 is reported as 2.15 µM.
With CC(C)c1nc2c([nH]1)c(=S)[nH]c(=S)n2Cc1ccc(Cl)cc1 [3-(4-chlorobenzyl)-8-isopropyl)-3,7 dihydro-2,6-dithio-3,7-purine-2,6-dione] the IC50 was 2.27 µM.
In the case of CC(C)c1nc2c([nH]1)c(=S)[nH]c(=S)n2Cc1ccccc1 [3-benzyl-3,7-dihydro-8-(1-methylethyl)-2,6-dithio-1H-purine-2,6-dione], the IC50 is reported as 3.4 µM.

Same assay, conditions: thioisoguanines, Table 2; cyclic AMP 0.2 μM; read-out: Calc IC50 PDE IV
For CC(C)c1nc2c([nH]1)c(NC1CCCC1)nc(=S)n2Cc1ccc(Cl)cc1 [3-(4-chlorobenzyl)-6-cyclopentylamino-3,7-dihydro-8-isopropyl-2-thio-2H-purin-2-one], the IC50 was 114 µM.
Work on CCCNc1nc(=S)n(CC2CC2)c2nc(C(C)C)[nH]c12 [3-(cyclopropylmethyl)-3,7-dihydro-8-(1-methyl-ethyl)-6-propylamino-2-thio-2H-purin-2-one hydrochloride] yielded an IC50 of 23.9 µM.
CCNc1nc(=S)n(Cc2ccccc2)c2nc(C(C)C)[nH]c12 [3-benzyl-6-ethylamino-3,7-dihydro-8-(1-methyl-ethyl)-2-thio-2H-purin-2-one] was tested, and the IC50 was 28.4 µM.
CCCCn1c(=S)nc(NCC)c2[nH]c(C3CC3)nc21 [3-butyl-8-cyclopropyl-3,7-dihydro-6-ethylamino-2-thio-2H-purin-2-one] was tested, and the IC50 was 34.9 µM.
With CCNc1nc(=S)n(CC2CCCCC2)c2nc(C3CC3)[nH]c12 [3-cyclohexylmethyl-8-cyclopropyl-3,7-dihydro-6-ethylamino-2-thio-2H-purin-2-one] the IC50 was 15.2 µM.
Compound CCn1c(=S)nc(NC2CCCC2)c2[nH]c(C(C)C)nc21 [3-ethyl-6-cyclopentylamino-3,7-dihydro-8-isopropyl-2-thio-2H-purin-2-one] has an IC50 of 9.4 µM.
CCn1c(=S)nc(NC2CCCC2)c2[nH]c(C3CC3)nc21 [3-ethyl-6-cyclopentylamino-8-cyclopropyl-3,7-dihydro-2-thio-2H-purin-2-one] was tested, and the IC50 was 0.19 µM.
